Measurements from patent US20110105510A1, “PROPHYLACTIC/AMELIORATING OR THERAPEUTIC AGENT FOR NON-ALCOHOLIC STEATOHEPATITIS” (priority 2008, published 2011).

What was measured:
[1] = tested on: NASH; details: EPA-E of high purity, 2700 mg/day for 12 months; cited from earlier work
[2] = tested on: high fat and high sucrose diet taking SD rats; assay: Efficacy on high fat and high sucrose diet taking rats; type: in vivo, rat; details: HF diet SD rats, four weeks, oral once a day; EPA-E 1000 mg/kg or compound 2 1 mg/kg; compared with the control group
Description: Four-week-old male SD rats are fed at 23° C. on a 12:12 light/dark cycle, whereupon they are permitted to take either an ordinary diet (F-1; Funabashi Farm Co., Ltd.) or a high fat and high sucrose diet (TD88137 from Harlan […]; hereafter referred to as “HF diet”) freely for four weeks. The rats are divided into five groups (each comprising 10 animals), namely, normal group (ordinary diet-loaded), control group (HF diet-loaded), EPA-E group (HF diet-loaded, plus EPA-E-administered), compound 2 group (HF diet-loaded, plus compound 2-administered), and combined application group (HF diet-loaded, plus EPA-E-administered, plus compound 2-administered). During the feeding, 1000 mg/kg of EPA-E is administered to the EPA-E group, 1 mg/kg of compound 2 to the compound 2 group, as well as 1000 mg/kg of EPA-E and 1 mg/kg of compound 2 are administered to the combined application group, with each administration being orally carried out once a day by suspending the relevant drug or drugs in a 5% aqueous solution of gum arabic. To the normal group and the control group, a 5% aqueous solution of gum arabic is orally administered once a day. After the feeding for four weeks, blood samples are collected to measure the neutrophil count and conduct biochemical assays of the plasma.

[3] = tested on: diabetic mice (db/db) loaded with a methionine-choline-deficient diet; assay: Efficacy on methionine-choline-deficient diet diabetic mice; type: in vivo, mouse; details: MCD diet db/db mice, two weeks, oral once a day; EPA-E 1000 mg/kg or compound 1 1 mg/kg; compared with the control group
Description: Pharmacological actions of EPA-E and/or compound 1 on hepatic disorders and fibrosis are confirmed by using diabetic mice loaded with a methionine-choline-deficient diet (hereafter referred to as “MCD diet”), which are known for their development of NASH-like hepatic lesions. Seven-week-old male db/db mice (Charles River Japan, Inc.) are fed at 23° C. on a 12:12 light/dark cycle, whereupon they are permitted to take either an ordinary diet (F-1; Funabashi Farm Co., Ltd.) or a MCD diet (Dyets, Inc.) freely for two weeks. The mice are divided into five groups (each comprising 20 animals), namely, normal group (ordinary diet-loaded), control group (MCD diet-loaded), EPA-E group (MCD diet-loaded, plus EPA-E-administered), compound 1 group (MCD diet-loaded, plus compound 1-administered), and combined application group (MCD diet-loaded, plus EPA-E-administered, plus compound 1-administered). During the feeding, 1000 mg/kg of EPA-E is administered to the EPA-E group, 1 mg/kg of compound 1 to the compound 1 group, as well as 1000 mg/kg of EPA-E and 1 mg/kg of compound 1 are administered to the combined application group, with each administration being orally carried out once a day by suspending the relevant drug or drugs in a 5% aqueous solution of gum arabic. To the normal group and the control group, a 5% aqueous solution of gum arabic is orally administered once a day. […]

SMILES	NASH (AST or ALT, inflammatory cytokines or oxidative stress markers, hepatobiopsy) [1]	increases of the neutrophil count, TNFα, IL-6, high sensitivity CRP, ferritin, thioredoxin and type IV collagen [2]	increases of the plasma AST and ALT levels [2]	increases of the plasma AST and ALT levels [3]	increases of the type IV collagen, hyaluronic acid and TIMP-1 levels [3]
CC/C=C\C/C=C\C/C=C\C/C=C\C/C=C\CCCC(=O)OCC [EPA-E, EPA ethyl]	amelioration of NASH	suppressed	suppressed	suppressed	suppressed
CCn1ncc2c(-c3cncc(Br)c3)c(C#N)c(C)nc21 [compound 2, 4-(5-bromo-3-pyridyl)-1-ethyl-6-methyl-1H-pyrazolo[3,4-b]pyridine-5-carbonitrile]	–	suppressed	suppressed	–	–
